This is an account of results in US12448394B2, “Heterocyclic pyrazole derivatives as type III receptor tyrosine kinase inhibitors” (DEVELOPMENT CENTER FOR BIOTECHNOLOGY, priority 2019, dated 2025).

Experiment [1] relates to THP-1 human acute monocytic leukemia cell with NRAS G12D mutation. As to the kind of experiment: THP-1 cell proliferation assay (counter screen). The class given is cell-based. As to conditions: Homo sapiens, THP-1 cells, 72 hours treatment, CellTiter96, read-out: anti-proliferation activity THP-1 NRAS N12D, IC50 ranking. In short, it runs like this:
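THP-1 cells (NRAS G12D, growth independent of class III RTK signaling) seeded at 5000 cells/well overnight, then exposed to increasing compound concentrations for 72 h at 37° C, 5% CO2. Viability read by CellTiter96 AQueous One reagent (2–4 h) as absorbance at 490 nm.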

Another experiment concerns the target T1, PDGFRα kinase (Homo sapiens, UniProt P16234).
T1 construct: purchased SignalChem
The experiment in a line: PDGFRα kinase assay (AlphaScreen). The experiment is classed as biochemical. The conditions noted are these: read-out: Ranking of IC50 values, PDGFRα. In short, it runs like this:
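Recombinant PDGFRα (1.5 ng) phosphorylated biotinylated poly(Glu4:Tyr1) with 10 μM ATP in MOPS pH 7.0 with 10 mM MgCl2, 30 min at 30 °C, stopped with EDTA. Product detected by AlphaScreen; IC50 from serial dilutions run in duplicate.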

The next experiment deals with T2, FLT3 kinase (Homo sapiens, UniProt P36888).
T2 construct: purchased SignalChem
T2 sequence (P36888 27-993): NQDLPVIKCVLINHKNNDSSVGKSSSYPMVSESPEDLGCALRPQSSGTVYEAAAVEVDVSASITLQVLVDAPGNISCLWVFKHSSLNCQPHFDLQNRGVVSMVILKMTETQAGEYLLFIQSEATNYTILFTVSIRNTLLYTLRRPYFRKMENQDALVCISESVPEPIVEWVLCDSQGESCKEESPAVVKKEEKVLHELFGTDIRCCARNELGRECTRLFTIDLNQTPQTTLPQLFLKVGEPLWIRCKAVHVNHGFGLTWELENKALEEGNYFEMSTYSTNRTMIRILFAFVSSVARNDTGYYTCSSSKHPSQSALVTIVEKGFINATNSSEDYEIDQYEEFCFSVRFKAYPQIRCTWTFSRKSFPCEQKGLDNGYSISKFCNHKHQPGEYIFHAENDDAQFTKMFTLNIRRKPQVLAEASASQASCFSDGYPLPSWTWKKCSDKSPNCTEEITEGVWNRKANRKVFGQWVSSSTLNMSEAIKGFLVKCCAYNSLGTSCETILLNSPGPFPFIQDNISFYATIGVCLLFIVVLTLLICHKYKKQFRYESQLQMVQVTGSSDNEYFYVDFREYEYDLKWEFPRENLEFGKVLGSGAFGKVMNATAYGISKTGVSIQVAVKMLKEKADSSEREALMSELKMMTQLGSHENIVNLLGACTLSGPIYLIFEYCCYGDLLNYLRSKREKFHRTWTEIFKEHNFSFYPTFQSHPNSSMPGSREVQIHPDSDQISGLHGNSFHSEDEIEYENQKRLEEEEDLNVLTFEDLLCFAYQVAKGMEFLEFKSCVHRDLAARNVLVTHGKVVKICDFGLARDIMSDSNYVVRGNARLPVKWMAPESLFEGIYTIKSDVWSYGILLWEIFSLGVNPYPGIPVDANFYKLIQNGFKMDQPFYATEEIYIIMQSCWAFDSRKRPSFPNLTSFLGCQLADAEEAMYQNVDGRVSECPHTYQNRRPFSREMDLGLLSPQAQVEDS
As to the kind of experiment: FLT3 kinase assay (AlphaScreen). The class given is biochemical. As to conditions: read-out: Ranking of IC50 values, FLT3. In short, it runs like this:
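Recombinant FLT3 (1.5 ng) phosphorylated biotinylated poly(Glu4:Tyr1) with 10 μM ATP in MOPS pH 7.0 buffer containing 10 mM MgCl2, 30 min at 30 °C, stopped with EDTA. Product detected by AlphaScreen; IC50 from duplicate serial dilutions.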

The subject of experiment [2] is A375 melanoma cell with BRAF V600E mutation. As to the kind of experiment: A375 cell proliferation assay (counter screen). The experiment is classed as cell-based, human. The conditions noted are these: Homo sapiens, A-375, A375 cells, 72 hours treatment, CellTiter96, read-out: anti-proliferation activity A375 BRAF V600E, IC50 ranking. In short, it runs like this: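 A375 cells (BRAF V600E) seeded at 2000 cells/well in DMEM with 10% FBS, settled overnight at 37° C, 5% CO2, then exposed to increasing compound concentrations for 72 hours. Viability read by MTS-type CellTiter96 AQueous reagent, absorbance at 490 nm after 2–4 hours.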

SMILES strings stand for the structures.

T1 sequence (P16234 24-1089): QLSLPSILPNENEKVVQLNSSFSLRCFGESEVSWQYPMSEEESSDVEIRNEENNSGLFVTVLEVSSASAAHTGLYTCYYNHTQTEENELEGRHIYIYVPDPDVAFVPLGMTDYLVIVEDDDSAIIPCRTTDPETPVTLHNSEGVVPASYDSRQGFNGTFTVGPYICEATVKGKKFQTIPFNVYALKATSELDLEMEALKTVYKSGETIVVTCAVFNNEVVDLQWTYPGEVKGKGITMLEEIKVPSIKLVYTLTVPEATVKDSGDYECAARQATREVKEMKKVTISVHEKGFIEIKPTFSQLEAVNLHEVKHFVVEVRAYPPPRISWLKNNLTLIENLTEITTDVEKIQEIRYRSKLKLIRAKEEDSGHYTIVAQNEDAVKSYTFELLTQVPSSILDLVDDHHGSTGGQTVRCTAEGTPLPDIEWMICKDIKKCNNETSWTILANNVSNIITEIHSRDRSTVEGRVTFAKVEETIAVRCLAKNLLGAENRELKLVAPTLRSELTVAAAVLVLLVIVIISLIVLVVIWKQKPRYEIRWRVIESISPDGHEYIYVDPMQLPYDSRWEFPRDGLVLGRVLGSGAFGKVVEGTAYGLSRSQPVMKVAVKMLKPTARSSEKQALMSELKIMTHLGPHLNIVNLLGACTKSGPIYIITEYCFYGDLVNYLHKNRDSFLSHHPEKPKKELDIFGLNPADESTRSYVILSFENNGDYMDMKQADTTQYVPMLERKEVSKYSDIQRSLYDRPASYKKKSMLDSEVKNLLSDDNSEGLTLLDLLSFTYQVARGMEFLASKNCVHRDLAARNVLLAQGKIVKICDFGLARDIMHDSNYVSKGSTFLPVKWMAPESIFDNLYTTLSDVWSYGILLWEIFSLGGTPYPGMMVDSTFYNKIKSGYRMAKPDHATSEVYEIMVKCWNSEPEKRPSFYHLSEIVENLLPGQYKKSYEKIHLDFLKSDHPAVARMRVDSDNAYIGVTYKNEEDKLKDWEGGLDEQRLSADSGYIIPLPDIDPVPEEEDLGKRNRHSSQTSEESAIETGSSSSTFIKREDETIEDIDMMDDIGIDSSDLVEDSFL

Regarding `Cn1ncc2ccc(-c3n[nH]c4c3Cc3sc(C5CCN(C(=O)CN6CCOCC6)CC5)cc3-4)cc21` [Compound 98, 1-(4-(3-(1-methyl-1H-indazol-6-yl)-1,4-dihydro-thieno[2′,3′:4,5]cyclopenta [1,2-c]pyrazol-6-yl)piperidin-1-yl)-2-morpholinoethan-1-one], the IC50 in experiment [1] is 300 to 1000 nM; on PDGFRα kinase, 1 to 10 nM; on FLT3 kinase, less than 1 nM; in experiment [2] it was 1000 to 10000 nM.
For the molecule `Cn1ncc2ccc(-c3n[nH]c4c3Cc3sc(-c5ccc(CN6CCCC6)cc5)cc3-4)cc21` [Compound 99, 3-(1-methyl-1H-indazol-6-yl)-6-(4-(pyrrolidin-1-ylmethyl)phenyl)-1,4-dihydrothieno[2′,3′:4,5] cyclopenta[1,2-c]pyrazole], the IC50 was 1000 to 10000 nM in experiment [1], 1 to 10 nM at PDGFRα kinase, less than 1 nM at FLT3 kinase and more than 10000 nM in experiment [2].
Turning to `Cn1ncc2ccc(-c3n[nH]c4c3Cc3sc(-c5ccc(CN6CCCCC6)cc5)cc3-4)cc21` [Compound 100, 3-(1-methyl-1H-indazol-6-yl)-6-(4-(piperidin-1-ylmethyl)phenyl)-1,4-dihydrothieno[2′,3′:4,5] cyclopenta[1,2-c]pyrazole], the IC50 in experiment [1] is 1000 to 10000 nM; on PDGFRα kinase it was 1 to 10 nM; on FLT3 kinase it was less than 1 nM; in experiment [2], more than 10000 nM.
As to `Cn1ncc2ccc(-c3n[nH]c4c3Cc3sc(-c5ccc(CN6CC7(COC7)C6)cc5)cc3-4)cc21` [Compound 102, 6-(4-(3-(1-methyl-1H-indazol-6-yl)-1,4-dihydro-thieno[2′,3′:4,5]cyclopenta [1,2-c]pyrazol-6-yl)benzyl)-2-oxa-6-azaspiro [3.3]heptane], the IC50 was more than 10000 nM in experiment [1], 1 to 10 nM at PDGFRα kinase, less than 1 nM on FLT3 kinase and more than 10000 nM in experiment [2].
Consider `Cn1ncc2ccc(-c3n[nH]c4c3Cc3sc(-c5ccc(CN6CCC6)cc5)cc3-4)cc21` [Compound 103, 6-(4-(azetidin-1-ylmethyl)phenyl)-3-(1-methyl-1H-indazol-6-yl)-1,4-dihydro-thieno[2′,3′:4,5]cyclopenta [1,2-c]pyrazole], for which the IC50 in experiment [1] is more than 10000 nM; on PDGFRα kinase it was 1 to 10 nM; at FLT3 kinase, less than 1 nM; in experiment [2], more than 10000 nM.
As to `Cn1ncc2ccc(-c3n[nH]c4c3Cc3sc(-c5ccc(CN6CC(F)(F)C6)cc5)cc3-4)cc21` [Compound 104, 6-(4-((3,3-difluoroazeti-din-1-yl)methyl)phenyl)-3-(1-methyl-1H-indazol-6-yl)-1,4-dihydrothieno [2′,3′:4,5]cyclopenta [1,2-c]pyrazole], the IC50 was in the range of 1000 to 10000 nM in experiment [1], 30 to 100 nM on PDGFRα kinase, 1 to 10 nM on FLT3 kinase and 1000 to 10000 nM in experiment [2].
Regarding `COC1CN(Cc2ccc(-c3cc4c(s3)Cc3c(-c5ccc6cnn(C)c6c5)n[nH]c3-4)cc2)C1` [Compound 105, 6-(4-((3-methoxyazeti-din-1-yl)methyl)phenyl)-3-(1-methyl-1H-indazol-6-yl)-1,4-dihydrothieno [2′,3′:4,5]cyclopenta [1,2-c]pyrazole], the IC50 was more than 10000 nM in experiment [1], 1 to 10 nM at PDGFRα kinase, less than 1 nM at FLT3 kinase and more than 10000 nM in experiment [2].
